Assay [1] deals with T1, GST fusion human ERK2 protein (Homo sapiens, UniProt P28482).
T1 construct: purchased Carna Biosciences, Inc; host or cells: E. coli expression system
The assay can be described thus: ERK2 enzyme assay (2). The assay is classed as biochemical. The conditions noted are these: read-out: ERK2 enzyme inhibitory activity (2). Summed up:
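GST-tagged human ERK2 expressed in E. coli (1.25 nmol/L) was preincubated with compound for 15 min at room temperature in pH 7.5 Hepes buffer with MgCl2, DTT and Brij35. Reaction with FL-Peptide 8 (final 4.25 μmol/L) and ATP (final 1 mmol/L) ran 120 min at 25 °C; EDTA stopped it, and phosphorylated peptide was quantified by mobility-shift separation to derive IC50.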

In another assay the target is T2, human PI3Kα protein (Homo sapiens, UniProt P42336).
T2 construct: purchased Carna Biosciences, Inc; host or cells: baculovirus expression system
The assay can be described thus: PI3Kα enzyme assay (ADP-Glo). The assay is classed as biochemical. Conditions: read-out: PI3Kα enzyme inhibitory activity. Summed up: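 Biotinylated human PI3Kα (baculovirus-expressed, 4.5 nmol/L) pre-incubated 15 min with compound in Tris-HCl pH 7.5, MgCl2, BSA; reaction 60 min at 25° C with 50 μmol/L PIP2 and 100 μmol/L ATP final. ADP quantified by ADP-Glo luminescence; IC50 calculated.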

Read-outs that look alike come from different tables or passages of the source.

T2 sequence (P42336 whole entry): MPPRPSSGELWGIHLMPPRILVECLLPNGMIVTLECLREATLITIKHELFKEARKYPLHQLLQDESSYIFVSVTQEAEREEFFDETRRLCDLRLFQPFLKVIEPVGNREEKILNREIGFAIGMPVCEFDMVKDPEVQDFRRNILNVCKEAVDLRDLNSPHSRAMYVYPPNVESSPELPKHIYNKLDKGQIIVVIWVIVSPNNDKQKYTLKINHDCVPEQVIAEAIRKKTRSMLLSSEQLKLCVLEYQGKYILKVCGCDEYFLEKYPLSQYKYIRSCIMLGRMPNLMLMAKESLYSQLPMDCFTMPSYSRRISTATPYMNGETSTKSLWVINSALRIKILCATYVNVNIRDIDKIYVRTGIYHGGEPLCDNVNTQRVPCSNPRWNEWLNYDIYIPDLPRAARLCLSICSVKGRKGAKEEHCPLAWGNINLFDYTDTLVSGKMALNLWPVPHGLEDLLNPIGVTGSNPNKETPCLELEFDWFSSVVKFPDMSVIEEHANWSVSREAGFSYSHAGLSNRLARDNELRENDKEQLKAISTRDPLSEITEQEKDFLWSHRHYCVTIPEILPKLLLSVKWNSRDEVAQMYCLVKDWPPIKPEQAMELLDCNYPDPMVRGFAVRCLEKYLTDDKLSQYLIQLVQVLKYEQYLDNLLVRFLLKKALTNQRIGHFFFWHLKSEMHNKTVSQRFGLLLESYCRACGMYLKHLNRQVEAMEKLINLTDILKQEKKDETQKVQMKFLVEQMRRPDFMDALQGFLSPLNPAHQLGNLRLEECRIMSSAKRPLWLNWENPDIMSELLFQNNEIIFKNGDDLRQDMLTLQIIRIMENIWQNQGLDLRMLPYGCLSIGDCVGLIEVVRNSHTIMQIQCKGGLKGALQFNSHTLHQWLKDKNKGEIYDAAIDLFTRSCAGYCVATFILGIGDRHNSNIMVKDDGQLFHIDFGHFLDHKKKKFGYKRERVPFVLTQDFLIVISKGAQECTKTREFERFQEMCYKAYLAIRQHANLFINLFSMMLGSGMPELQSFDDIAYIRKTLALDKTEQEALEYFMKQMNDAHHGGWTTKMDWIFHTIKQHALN
T2 sequence (P27986 whole entry partner): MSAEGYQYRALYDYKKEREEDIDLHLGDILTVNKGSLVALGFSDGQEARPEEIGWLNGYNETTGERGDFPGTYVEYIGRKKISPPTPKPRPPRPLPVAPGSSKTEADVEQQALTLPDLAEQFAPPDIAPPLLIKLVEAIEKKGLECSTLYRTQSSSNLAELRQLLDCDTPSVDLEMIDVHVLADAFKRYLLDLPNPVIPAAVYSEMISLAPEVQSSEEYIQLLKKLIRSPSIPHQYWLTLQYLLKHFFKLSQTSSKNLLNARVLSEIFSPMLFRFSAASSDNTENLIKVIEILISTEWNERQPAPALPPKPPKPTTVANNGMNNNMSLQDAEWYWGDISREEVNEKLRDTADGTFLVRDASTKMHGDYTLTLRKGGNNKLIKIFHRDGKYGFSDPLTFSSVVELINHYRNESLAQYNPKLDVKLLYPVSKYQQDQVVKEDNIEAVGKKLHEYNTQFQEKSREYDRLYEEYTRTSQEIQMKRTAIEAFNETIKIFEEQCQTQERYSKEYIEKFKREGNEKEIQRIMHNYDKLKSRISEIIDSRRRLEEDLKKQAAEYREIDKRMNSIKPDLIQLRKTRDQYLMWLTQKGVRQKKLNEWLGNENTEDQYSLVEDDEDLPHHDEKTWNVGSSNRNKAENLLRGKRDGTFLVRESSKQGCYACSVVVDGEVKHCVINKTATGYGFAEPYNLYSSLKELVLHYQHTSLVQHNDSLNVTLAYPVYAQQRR
T1 sequence (P28482 whole entry, the tested form may be a part): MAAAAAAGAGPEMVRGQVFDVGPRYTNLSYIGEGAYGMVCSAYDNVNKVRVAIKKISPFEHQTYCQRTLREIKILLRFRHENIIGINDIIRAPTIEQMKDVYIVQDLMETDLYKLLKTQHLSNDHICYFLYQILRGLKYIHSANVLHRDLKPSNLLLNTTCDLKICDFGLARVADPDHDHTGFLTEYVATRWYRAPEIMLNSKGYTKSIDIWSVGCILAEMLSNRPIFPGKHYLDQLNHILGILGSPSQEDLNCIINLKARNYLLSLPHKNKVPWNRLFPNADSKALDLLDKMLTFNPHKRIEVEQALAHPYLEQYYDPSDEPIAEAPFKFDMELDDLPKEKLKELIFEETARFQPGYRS

As to `CC(C)c1cnnc(Nc2ccc3ncc(N4CCS(=O)(=O)CC4)cc3n2)c1` [Example 0857], the results for the IC50 (in assay [1] (ERK2 enzyme assay (2)); at human PI3Kα protein) were below 1 µM and 1 to 10 µM, respectively.

As to `CC(C)c1cnnc(Nc2ccc3ncc(N4CCC(F)(F)CC4)cc3n2)c1` [Example 0858], the IC50 is below 1 µM in assay [1] (ERK2 enzyme assay (2)) and 1 to 10 µM at human PI3Kα protein.

`COC1(C)CN(c2cnc3ccc(Nc4cc(C(C)C)cnn4)nc3c2)C1` [Example 0859]: the IC50 was below 1 µM in assay [1] (ERK2 enzyme assay (2)) and 1 to 10 µM at human PI3Kα protein.

On to `CC(C)c1cnnc(Nc2ccc3ncc(N4CC(Oc5ccccc5)C4)cc3n2)c1` [Example 0860], for which the IC50 (in assay [1] (ERK2 enzyme assay (2)); on human PI3Kα protein) was 1 to 10 µM in each case.

For `CC(C)c1cnnc(Nc2ccc3ncc(N4CCN(S(C)(=O)=O)CC4)cc3n2)c1` [Example 0861], the IC50 (in assay [1] (ERK2 enzyme assay (2)); at human PI3Kα protein) was below 1 µM in each case.

With `CC(C)c1cnnc(Nc2ccc3ncc(N4CCC(=O)N(C)CC4)cc3n2)c1` [Example 0862], the IC50 (in assay [1] (ERK2 enzyme assay (2)); at human PI3Kα protein) was below 1 µM each time.

In the case of `CC(C)OC1CN(c2cnc3ccc(Nc4cc(C(C)C)cnn4)nc3c2)C1` [Example 0863], the IC50 is below 1 µM in assay [1] (ERK2 enzyme assay (2)) and 1 to 10 µM at human PI3Kα protein.

For the molecule `CC(C)c1cnnc(Nc2ccc3ncc(N4CC(OCCF)C4)cc3n2)c1` [Example 0864], the IC50 (in assay [1] (ERK2 enzyme assay (2)); on human PI3Kα protein) was below 1 µM in each case.

Turning to `CC(C)c1cnnc(Nc2ccc3ncc(N4CC(OCC(F)(F)F)C4)cc3n2)c1` [Example 0865], the IC50 (in assay [1] (ERK2 enzyme assay (2)); at human PI3Kα protein) was 1 to 10 µM in each case.

On to `CC(C)c1cnnc(Nc2ccc3ncc(N4CC(NS(C)(=O)=O)C4)cc3n2)c1` [Example 0867], for which the IC50 (in assay [1] (ERK2 enzyme assay (2)); at human PI3Kα protein) was below 1 µM each time.

`CC(C)c1cnnc(Nc2ccc3ncc(N4CC(OCC(F)F)C4)cc3n2)c1` [Example 0868]: the IC50 in assay [1] (ERK2 enzyme assay (2)) is below 1 µM; at human PI3Kα protein, 1 to 10 µM.

For `CC(C)c1cnnc(Nc2ccc3ncc(N4CC(OCC5CC5)C4)cc3n2)c1` [Example 0869], the results for the IC50 (in assay [1] (ERK2 enzyme assay (2)); on human PI3Kα protein) were below 1 µM and 1 to 10 µM, respectively.

For the molecule `CCCCOC1CN(c2cnc3ccc(Nc4cc(C(C)C)cnn4)nc3c2)C1` [Example 0870], the IC50 (in assay [1] (ERK2 enzyme assay (2)); at human PI3Kα protein) was 1 to 10 µM in each case.

In the case of `CC(C)c1cnnc(Nc2ccc3ncc(N4CCCN(C)CC4)cc3n2)c1` [Example 0871], the IC50 (in assay [1] (ERK2 enzyme assay (2)); on human PI3Kα protein) was 1 to 10 µM in each case.

Consider `CC(=O)N1CCN(c2cnc3ccc(Nc4cc(C(C)C)cnn4)nc3c2)CC1` [Example 0872], for which the IC50 (in assay [1] (ERK2 enzyme assay (2)); at human PI3Kα protein) was below 1 µM in each case.

For the molecule `CC(C)c1cnnc(Nc2ccc3ncc(N4C[C@@H](C)O[C@@H](C)C4)cc3n2)c1` [Example 0873], the IC50 (in assay [1] (ERK2 enzyme assay (2)); on human PI3Kα protein) was below 1 µM in each case.

Take `COC[C@@H]1CCCN1c1cnc2ccc(Nc3cc(C(C)C)cnn3)nc2c1` [Example 0874]: the IC50 (in assay [1] (ERK2 enzyme assay (2)); on human PI3Kα protein) was below 1 µM throughout.

As for `CC(C)c1cnnc(Nc2ccc3ncc(N4CCN(CC(F)(F)F)CC4)cc3n2)c1` [Example 0875], the results for the IC50 (in assay [1] (ERK2 enzyme assay (2)); on human PI3Kα protein) were below 1 µM and 1 to 10 µM, respectively.

`CC(C)c1cnnc(Nc2ccc3ncccc3n2)c1` [Example 0876]: the IC50 (in assay [1] (ERK2 enzyme assay (2)); on human PI3Kα protein) was 1 to 10 µM each time.

For `CC(C)c1cnnc(Nc2ccc3ncc(NC4CCCCC4)cc3n2)c1` [Example 0877], the values for the IC50 (in assay [1] (ERK2 enzyme assay (2)); at human PI3Kα protein) were 1 to 10 µM and below 1 µM, respectively.

As to `CC(C)c1cnnc(Nc2ccc3ncc(NC4CCCC4)cc3n2)c1` [Example 0878], the values for the IC50 (in assay [1] (ERK2 enzyme assay (2)); at human PI3Kα protein) were 1 to 10 µM and below 1 µM, respectively.

`CC(C)c1cnnc(Nc2ccc3ncc(NC4CCC4)cc3n2)c1` [Example 0879]: the IC50 (in assay [1] (ERK2 enzyme assay (2)); at human PI3Kα protein) was below 1 µM in each case.

For the molecule `CC(C)c1cnnc(Nc2ccc3ncc(C4=CCN(C(=O)OC(C)(C)C)CC4)cc3n2)c1` [Example 0880, tert-butyl 4-(6-((5-isopropylpyridazin-3-yl)amino)-1,5-naphthyridin-3-yl)-5,6-dihydropyridine-1(2H)-carboxylate], the IC50 (in assay [1] (ERK2 enzyme assay (2)); at human PI3Kα protein) was below 1 µM each time.

`CC(C)c1cnnc(Nc2ccc3ncc(C4=CCNCC4)cc3n2)c1` [Example 0881, N-(5-isopropylpyridazin-3-yl)-7-(1,2,3,6-tetrahydropyridin-4-yl)-1,5-naphthyridine-2-amine]: the IC50 was below 1 µM in assay [1] (ERK2 enzyme assay (2)) and 1 to 10 µM on human PI3Kα protein.

For `CC(=O)N1CC=C(c2cnc3ccc(Nc4cc(C(C)C)cnn4)nc3c2)CC1` [Example 0882, 1-(4-(6-((5-isopropylpyridazin-3-yl)amino)-1,5-naphthyridin-3-yl)-5,6-dihydropyridine-1(2H)-yl)ethanone], the IC50 (in assay [1] (ERK2 enzyme assay (2)); on human PI3Kα protein) was below 1 µM each time.

Regarding `CC(C)c1cnnc(Nc2ccc3ncc(C4=CCN(C(=O)N(C)C)CC4)cc3n2)c1` [Example 0883, 4-(6-((5-Isopropylpyridazin-3-yl)amino)-1,5-naphthyridin-3-yl)-N,N-dimethyl-5,6-dihydropyridine-1(2H)-carboxamide], the IC50 (in assay [1] (ERK2 enzyme assay (2)); on human PI3Kα protein) was below 1 µM throughout.

As to `CC(C)c1cnnc(Nc2ccc3ncc(C4=CCN(C)CC4)cc3n2)c1` [Example 0884, N-(5-isopropylpyridazin-3-yl)-7-(1-methyl-1,2,3,6-tetrahydropyridin-4-yl)-1,5-naphthyridine-2-amine], the results for the IC50 (in assay [1] (ERK2 enzyme assay (2)); on human PI3Kα protein) were below 1 µM and 1 to 10 µM, respectively.

In the case of `Cc1nn(C)cc1-c1cnc2ccc(Nc3cc(C4(C)CC4)cnn3)nc2c1` [Example 0885, 7-(1,3-Dimethyl-1H-pyrazol-4-yl)-N-(5-(1-methylcyclopropyl)pyridazin-3-yl)-1,5-naphthyridine-2-amine], the IC50 (in assay [1] (ERK2 enzyme assay (2)); on human PI3Kα protein) was below 1 µM in each case.

Consider `CC(C)c1cnnc(Nc2ccc3ncc(-c4cn(C)nc4Cl)cc3n2)c1` [Example 0886, 7-(3-Chloro-1-methyl-1H-pyrazol-4-yl)-N-(5-isopropylpyridazin-3-yl)-1,5-naphthyridine-2-amine], for which the IC50 (in assay [1] (ERK2 enzyme assay (2)); at human PI3Kα protein) was below 1 µM each time.

Turning to `CC(C)c1cnnc(Nc2ccc3ncc(N4CCN(C)C(=O)C4)cc3n2)c1` [Example 0887], the results for the IC50 (in assay [1] (ERK2 enzyme assay (2)); on human PI3Kα protein) were 1 to 10 µM and below 1 µM, respectively.

Consider `CC(C)c1cnnc(Nc2ccc3ncc(NC4(C)CCC4)cc3n2)c1` [Example 0888], for which the IC50 (in assay [1] (ERK2 enzyme assay (2)); at human PI3Kα protein) was 1 to 10 µM throughout.

Take `COCC1(Nc2cnc3ccc(Nc4cc(C(C)C)cnn4)nc3c2)CCC1` [Example 0889]: the IC50 (in assay [1] (ERK2 enzyme assay (2)); on human PI3Kα protein) was 10 to 50 µM each time.

Take `CC(C)c1cnnc(Nc2ccc3ncc(NC4CCOC4)cc3n2)c1` (stereo not drawn) [Example 0890]: the IC50 in assay [1] (ERK2 enzyme assay (2)) was 1 to 10 µM; on human PI3Kα protein, below 1 µM.

On to `CC(C)c1cnnc(Nc2ccc3ncc(NC4CN(C(=O)OC(C)(C)C)C4)cc3n2)c1` [Example 0891], for which the IC50 in assay [1] (ERK2 enzyme assay (2)) was below 1 µM; on human PI3Kα protein, 1 to 10 µM.

With `CC(C)c1cnnc(Nc2ccc3ncc(C4=CCN(C(=O)OC(C)(C)C)C4)cc3n2)c1` [Example 0892, tert-butyl 3-(6-((5-isopropylpyridazin-3-yl)amino)-1,5-naphthyridin-3-yl)-2,5-dihydro-1H-pyrrole-1-carboxylate], the IC50 (in assay [1] (ERK2 enzyme assay (2)); on human PI3Kα protein) was 1 to 10 µM each time.

For the molecule `CC(C)c1cnnc(Nc2ccc3ncc(N4CCC(F)(F)C4)cc3n2)c1` [Example 0893], the IC50 (in assay [1] (ERK2 enzyme assay (2)); at human PI3Kα protein) was below 1 µM each time.

As for `CO[C@H]1CCC[C@@H]1Nc1cnc2ccc(Nc3cc(C(C)C)cnn3)nc2c1` [Example 0894], the figures for the IC50 (in assay [1] (ERK2 enzyme assay (2)); on human PI3Kα protein) were 1 to 10 µM and below 1 µM, respectively.

For `COC1CCN(c2cnc3ccc(Nc4cc(C(C)C)cnn4)nc3c2)C1` (stereo not drawn) [Example 0895], the IC50 is below 1 µM in assay [1] (ERK2 enzyme assay (2)) and 1 to 10 µM on human PI3Kα protein.

For `CC(C)c1cnnc(Nc2ccc3ncc(N4CCC(C(F)(F)F)C4)cc3n2)c1` (stereo not drawn) [Example 0896], the IC50 (in assay [1] (ERK2 enzyme assay (2)); at human PI3Kα protein) was 1 to 10 µM each time.

As to `CC(C)c1cnnc(Nc2ccc3ncc(N4CCC(C#N)C4)cc3n2)c1` (stereo not drawn) [Example 0897], the IC50 (in assay [1] (ERK2 enzyme assay (2)); on human PI3Kα protein) was below 1 µM throughout.

In the case of `CC(C)c1cnnc(Nc2ccc3ncc(N4CCC(C(N)=O)C4)cc3n2)c1` (stereo not drawn) [Example 0898], the IC50 in assay [1] (ERK2 enzyme assay (2)) is 1 to 10 µM; on human PI3Kα protein, below 1 µM.

On to `CC(C)c1cnnc(Nc2ccc3ncc(N4CCC(N5CCCC5)C4)cc3n2)c1` (stereo not drawn) [Example 0899], for which the IC50 (in assay [1] (ERK2 enzyme assay (2)); at human PI3Kα protein) was 1 to 10 µM each time.

Regarding `CC(C)c1cnnc(Nc2ccc3ncc(N4CCC(S(N)(=O)=O)C4)cc3n2)c1` (stereo not drawn) [Example 0900], the IC50 in assay [1] (ERK2 enzyme assay (2)) was 1 to 10 µM; at human PI3Kα protein, below 1 µM.

On to `CC(C)c1cnnc(Nc2ccc3ncc(N4C5CCC4COC5)cc3n2)c1` [Example 0901], for which the figures for the IC50 (in assay [1]; on human PI3Kα protein) were below 1 µM and 1 to 10 µM, respectively.

With `CC(C)c1cnnc(Nc2ccc3ncc(N4CC5CC(C4)O5)cc3n2)c1` [Example 0902], the IC50 (in assay [1]; at human PI3Kα protein) was below 1 µM throughout.

As for `CC(C)c1cnnc(Nc2ccc3ncc(N4CC5CCC(C4)O5)cc3n2)c1` [Example 0903], the IC50 (in assay [1]; on human PI3Kα protein) was below 1 µM in each case.

On to `CC(C)c1cnnc(Nc2ccc3ncc(NC4COC4)cc3n2)c1` [Example 0904], for which the IC50 in assay [1] is 1 to 10 µM; on human PI3Kα protein, below 1 µM.

Consider `CC(C)c1cnnc(Nc2ccc3ncc(NC4CNC4)cc3n2)c1` [Example 0905, N^7-(azetidin-3-yl)-N^2-(5-isopropylpyridazin-3-yl)-1,5-naphthyridine-2,7-diamine], for which the IC50 (in assay [1]; on human PI3Kα protein) was 1 to 10 µM each time.

Source of the values: US9783536B2, “Nitrogen-containing heterocyclic compound or salt thereof” (FUJIFILM Corporation, priority 2013, dated 2017).
